pIC50: −log10 of the molar value. “Also recorded” adds a separate entry of the source.
Columns and labels:
[1] = system: A549 NRF2-ARE-Fluc stable cell line; experiment: A549 Nrf2 assay: NRF2-ARE firefly luciferase reporter gene assay; format: cell-based; settings: Homo sapiens, read-out: Potency of inhibition, A549
In short: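 A549 cells (Keap1 loss-of-function, constitutive NRF2) stably carrying ARE-driven firefly luciferase; compound treatment 18–24 h at 37 °C, 0.46% DMSO final.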

[2] = system: Rhabdomyosarcoma cells (Rh30); experiment: Growth of rhabdomyosarcoma cells (clonogenic / soft agar); format: cell-based; settings: for Growth of rhabdomyosarcoma cells, clonogenic assay, single agent: single agents
Protocol: (§1) (A) Ewing sarcoma cells (A4573) cells were on soft agar and treated with doxorubicin (2 nM) singly or in combination with compound 4 (10 μM) for 72 h. At the end of treatment, regular growth media was added and cells were further incubated for 8-10 days and colonies were stained with crystal violet and counted. (B) Rhabdomyosarcoma cells (Rh30) cells were on soft agar and treated with doxorubicin (2 nM) and etoposide (5-nM) singly or in combination with compound 4 (10 μM) for 72 h. At the end of treatment, regular growth media was added and cells were further incubated for 8-10 days and colonies were stained with crystal violet and counted;
(§2) For the clonogenic assays, 1,000 cells/well were plated in a 6-well plate. The next day, the cells were treated with vehicle (DMSO), Nrf2 inhibitor, a chemotherapeutic drug, or a combination of Nrf2 and chemotherapeutic drugs for 48 hrs. The drug containing media was then replaced with regular growth media and the cells were incubated for an additional 10 days. At the end of incubation period, the colonies were stained with Crystal Violet and imaged.

[3] = system: mRNA expression of Nrf2 and its downstream target genes, GCLm and NQO1, H1437 cells; experiment: Real time RT-PCR of Nrf2 and downstream target genes in H1437 cells; format: cell-based
Protocol: For the real time reverse transcription polymerase chain reaction (RT-PCR) assay, cells were treated with Nrf2 inhibitors for 36-48 hrs, followed by total RNA isolation. The mRNA expression of Nrf2 and its downstream target genes, GCLm and NQO1 was measured by RT-PCR. (NC means no significant change in gene expression in comparison with vehicle group; M represents the concentration of drug used in the gene expression studies and it is twice the IC50 values generated from primary screening with A549-ARE reporter cell lines).

H460 lung cancer cells = experiment: Clonogenic assay in H460 lung cancer cells; format: cell-based; settings: for Cytotoxicity of chemotherapeutic drugs in combination with the compound, clonogenic assay: H460 cells, combination with chemotherapeutic drug
Protocol: (§3) (A) H460, a NSCLC with a point mutation in KEAP1, is more sensitive to compound 4 than H460-KEAP1 Knock-in H460 cells expressing WT KEAP1. The cells were incubated with the inhibitor for 48 h. Colonies were stained with crystal violet staining and manually counted. (B-C) A549 and H460 cells were treated with different concentrations of paclitaxel, doxorubicin and carboplatin singly or in combination with compound 4 for 72 h. At the end of treatment, regular growth media was added and cells were further incubated for 8-10 days and stained with crystal violet. […] Cells treated with Chemo drug alone or a combination of compound 4 and chemo drug were incubated with luminogenic caspase substrate and change in luminescence was measured. Caspase activity was normalized to the number of viable cells using CellTiter-Blue assay.
as §2

[4] = system: orthotopic lung tumor model (large cell model); experiment: Orthotopic lung tumor model (large cell model); format: in vivo, Mice; settings: two weeks post-treatment; single agent and combination with carboplatin
Text: For each group, pretreatment available lung volume was defined as 100% and compared with post-treatment lung volumes.

[5] = system: orthotopic lung tumor model; experiment: Orthotopic lung tumor model, NSCLC xenograft; format: in vivo, Mice; settings: three weeks post-treatment; single agent and combination with carboplatin
Protocol: A549 cells were injected in the flanks of athymic nude mice and once tumor volume reached 50-100 mm^3, treatment was initiated. Vehicle, carboplatin (5 mg/kg daily Monday to Friday), compound 4 (30 mg/kg daily Monday to Friday) or a combination of compound 4 and carboplatin was administered for three weeks. Values represent tumor volume ±s.e.m. for all groups (A). […] Tumors were excised and weight at the end of treatment period. […] For each group, pretreatment available lung volume was defined as 100% and compared with post-treatment lung volumes. Mice in the vehicle treated group died at 3 weeks;

[6] = system: Caspase 3/7 activity, H460 cells; experiment: Caspase 3/7 activity in H460 cells; format: cell-based; settings: combination of compound and chemo drug
Protocol: as §3

[7] = system: Ewing sarcoma cells (A4573); experiment: Soft agar colony assay in Ewing sarcoma cells; format: cell-based; settings: 72 h
Protocol: as §1

| SMILES | pIC50 [1] | Growth of rhabdomyosarcoma cells, clonogenic assay, single agent [2] | Nrf2 (and GCLm, NQO1) expression, real time PCR based validation [3] | Cytotoxicity of chemotherapeutic drugs in combination with the compound, clonogenic assay (H460 lung cancer cells) | Tumor free lung volume, orthotopic lung tumor model [4] | Tumor free lung volume, orthotopic lung tumor model [5] | Caspase 3/7 activity [6] | Colony growth of A4573 cells on soft agar, combination ([7]; 10 μM with doxorubicin (2 nM)) | Colony growth of A4573 cells on soft agar, single agent ([7]; 10 μM) | Selective toxicity: H460 (KEAP1 point mutation) versus H460-KEAP1 Knock-in cells expressing WT KEAP1 (H460 lung cancer cells; 48 h, colonies counted) | Colony growth of Rh30 cells on soft agar, combination ([2]; 10 μM with doxorubicin (2 nM) and etoposide, 72 h) | Colony growth of Rh30 cells on soft agar, single agent ([2]; 10 μM, 72 h) |
| --- | --- | --- | --- | --- | --- | --- | --- | --- | --- | --- | --- | --- |
| O=C(Nc1ncc(Cc2ccc(C(F)(F)F)cc2)s1)c1ccc(-c2cccc([N+](=O)[O-])c2)o1 [Compound 1] | 4.60 to 5.30 | suppress growth of rhabdomyosarcoma cells | – | – | – | – | – | – | – | – | – | – |
| CC1(C)CC2CC(C)(CN2S(=O)(=O)c2ccc(C(=O)Nc3ccc(Cl)c(S(=O)(=O)N4CCOCC4)c3)cc2)C1 (stereo not drawn) [compound 3] | > 5.30 | suppress growth of rhabdomyosarcoma cells | inhibit Nrf2 expression | enhance the cytotoxicity of standard care chemotherapeutic drugs | – | – | – | – | – | – | – | – |
| Cc1ccccc1C(=O)N1CCc2cc(-c3nc(NC(=O)Cc4ccc5c(c4)OCO5)sc3C)ccc21 [compound 4] | > 5.30 | suppress growth of rhabdomyosarcoma cells | significant reduction in Nrf2, GCLm, and NQO1 expression | enhance the cytotoxicity of the chemotherapeutic drug paclitaxel; also recorded: potentiates the toxicity of standard care chemotherapy drugs | shows anti-tumor efficacy as a single agent and in combination with carboplatin | shows anti-tumor efficacy as a single agent and in combination with carboplatin | increased Caspase 3/7 activity | potentiates the cytotoxicity of standard care chemotherapy drugs | significant growth inhibitory activity as single agent | selectively toxic to cells with KEAP1 mutations | potentiates the cytotoxicity of standard care chemotherapy drugs | significant growth inhibitory activity as single agent |

Reference: patent publication US20160046616A1, “NRF2 SMALL MOLECULE INHIBITORS FOR CANCER THERAPY” (THE JOHNS HOPKINS UNIVERSITY, priority 2013, published 2016)
